According to US20250248393A1, “METHOD OF RELEASING A SEMIOCHEMICAL IN THE ENVIRONEMENT BY PASSIVE DIFFUSION, SYSTEM AND MEANS, ESPECIALLY STICKS, TO THIS END, AND USES THEREOF” (SIGNS, priority 2024, published 2025):

Key:
Type in all cases: physicochemical
[1] = F3 direct diffusion and mass loss, 40 mL and eight sticks with a refill; conditions: F3, eight sticks
Experimental: To that purpose, three devices containing 40 mL of F3 feline facial pheromone product and eight rattan sticks were prepared and left on diffusion. Every Monday, Wednesday and Friday, the diffusion of the pheromone in air was checked by analysis by gas chromatography coupled with mass spectrometer (GC/MS) and SPME (solid phase microextraction) until there was no liquid left. Then, the solution was refilled and a second study of the diffusion of the pheromone was performed.
Experimentally, the studied device was taken and placed into a closed space under identical conditions than in section E/, and for analyzing the same data.
Each measuring day, the devices were weighed and the level of the solution in the flask was controlled.

[2] = Indirect assay of diffuser blocks (GC/FID, pheromone remaining in the block); conditions: despecified pheromone
Experimental: Analyses were carried out using the gas chromatography (GC) technique with a flame ionization detector (FID), commonly known as GC/FID. The instrument used was the Shimadzu GC2025.® • Injection: Quantity injected: 1 μL, split 50:1, temperature: 230° C. • Separation: DB-WAX column (Agilent), length: 20 m, diameter: 180 μm, film thickness: […] • Carrier gas: Helium (He) • Analysis time: 11.50 min (not including time to return to equilibrium between each analysis) injection). • Detection: FID, temperature: 250° C., flow rates: H2: 40 mL/min, Air: 400 mL/min, Nitrogen (make-up): 30 mL/min. To obtain a representative sample, “cores” were drilled at various positions in the block and then collected. 2.5 g of gel were weighed into a 50 mL volumetric flask and the volume made up to the beginning of the neck of the flask with acetone. The flask was then placed in an ultrasonic bath for one hour until the block was dissolved (a white precipitate was obtained), then acetone was added to the mark. An aliquot of this solution was placed in a syringe fitted with a syringe filter and filtered to obtain a translucent solution. The resulting solution was transferred to a 1.5 mL GC vial for analysis. The assays were carried out using a calibration range.

[3] = DAP PCDS direct diffusion (SPME-GC/MS); conditions: DAP/PCDS diffuser, 40 mL, 6 capillaries
Experimental: Three diffusers, each containing 40 mL of solution and 6 capillaries, were prepared and diffused. The first points were measured at T=1d, T=2, and T=3d, then every Monday, Wednesday and Friday of each study week until the diffusers no longer contained any solution. To measure the pheromone released into the air at each study time, the diffuser is first weighed (with the sticks) to measure mass loss, then placed in an enclosed area (in this case, an upside-down aquarium) containing a SPME fiber, as shown in FIG. 24.
The fiber is left to diffuse above the diffuser for 2 hours (a time determined in a previous method development as the optimum time for molecules to adsorb to the phase), then analyzed using the gas chromatography/mass spectrometry (GC/MS) technique.
Three diffusers were studied for greater accuracy. The chromatograms obtained are reprocessed using GC/MS Solution software.
For each chromatographic peak, the area is recorded using GC/MS Solution software, then entered into an Excel spreadsheet. Diffusion curves giving the area of the chromatographic peak corresponding to each active ingredient as a function of time are then plotted.
Analyses were carried out by gas chromatography/mass spectrometry (GC/MS). The instrument was a Shimadzu GCMS QP2010SE® equipped with an AOC 6000® autosampler. Separation was carried out on a ZB-FFAP® column (30 m×0.25 mm×0.25 μm, stationary phase: nitroterephthalic acid-modified polyethylene glycol) supplied by Phenomenex. The furnace temperature was initially set at 80° C. for 1 minute, then increased at 10° C./min to 240° C. and maintained at this temperature for 2 minutes. The carrier gas was helium at a flow rate of 1 mL/min. Analysis time is 19 minutes.
The injector is a split/splitless injector used in split mode (temperature: 250° C., split: 50:1). The SPME fiber was injected directly into the injector and left to desorb for 15 minutes.
The separated molecules were detected using a mass spectrometer equipped with an electron impact source (temperature: 200° C.). The analyzer is a simple quadrupole. The interface temperature is 250° C. Data were acquired in FASST mode (Fast automated SCAN/SIM type), i.e. part of the analysis was performed by scanning all ions (SCAN) and part by selecting specific ions (SIM). Target molecules were thus analyzed using ion selection.

[4] = F3 migration along the stick (top 1 cm, GC/MS); conditions: F3, five sticks
Experimental: Three devices containing 40 mL of F3 feline facial pheromone product and five […] sticks were prepared and left on diffusion. A t=1 day, T=3 days, T=10 days, T=15 days and T=22 days after preparation of the devices, one stick was taken on each device and 1 cm of the top of each stick was cut, then extracted with acetone 1 h in an ultrasonic bath and analysed by gas chromatography coupled with mass spectrometry (GC/MS). The same analytical parameters were used for the study C with a liquid injection (injected quantity: […]) Blank analysis and matrix blank analysis were also performed.

[5] = F3 block stability study in sodium stearate aqueous gel (GC-MS); conditions: after 3 months
Experimental: Aqueous sodium stearate gel is a method used by SIGNS for several of the pheromones it markets (pork, poultry, rabbit). The sodium stearate matrix is cast at high temperature (60° C.) and contains 2% pheromone. In this study, matrix samples are taken by coring, and the active ingredients are extracted by apolar solvent, using the SIGNS-validated quality control method. Extracts are analyzed by GC-MS. […] Given this observation, formula F3 cannot be used in blocks for passive diffusion, so a change of galenic formulation is necessary.

[6] = Direct diffusion of diffuser blocks (SPME GC/MS); conditions: despecified pheromone 2%, 4 weeks
Experimental: Analyses were carried out using gas chromatography (GC) coupled to a mass spectrometer (MS) detector, a technique commonly referred to as GCMS. The molecules of interest were extracted using the Solid Phase Micro-Extraction (SPME) technique. The instrument used was the following: QP2010SE® from Shimadzu (See FIG. 4).
AOC 6000® automatic feeder • Extraction/SPME fiber: polyacrylate/Fused silica (85 μm), 23 Ga. • Adsorption time: 2 hours (exposure time of fiber above block) (See FIG. 4) • Desorption time: 30 minutes (fiber exposure time in injector) • Fiber-block distance: 2 cm • Injection: split/splitless injector • Temperature: 250° C., split 50 mode. • Separation: ZB-FFAP® column (Phénomenex), length: 30 m, diameter: 250 μm, film thickness: […]
• Carrier gas: Helium (He) • Analysis time: 18 min (not including time to return to equilibrium between each analysis injection • Detection: mass spectrometer with electron impact source/analyzer: quadrupole. • Source temperature: 200° C. • Interface temperature: 250° C. • Scan m/z 50 to m/z 500 • SIM with ions 55, 66 and 74.
Analyses were carried out in triplicate to verify reproducibility of results.
With the SPME method, results are evaluated by measuring the chromatographic peak area. The data have been plotted on diffusion curve (see FIGS. 5 and 6).

intensity of direct diffusion [1]	% of the active ingredient in the pheromone ([2]; day 0)	% of the active ingredient in the pheromone ([2]; day 7)	% of the active ingredient in the pheromone ([2]; day 14)	% of the active ingredient in the pheromone ([2]; day 21)	% of the active ingredient in the pheromone ([2]; day 28)	direct diffusion over time [3]	stability in the block [5]	direct diffusion from the diffuser block [6]	SMILES	quantity on the top of the stick over time [4]	relative quantity on the top of the stick [4]
less intensity	30.4%	30.6%	30.6%	30.7%	30.7%	slight increase over time	remained stable	lowest intensity	CCCCCCCC/C=C\CCCCCCCC(=O)OC [methyl oleate, methyl (Z)-octadec-9-enoate]	more pronounced increase of their quantities over time	major compound found on the top of the stick
less intensity	27.2%	27.2%	27.1%	27.1%	27.1%	slight increase over time	remained stable	diffuse better	CCCCCCCCCCCCCCCC(=O)OC [methyl palmitate, methyl hexadecanoate]	more pronounced increase of their quantities over time	
